Assay results from patent US7247440B2, “Method of screening preventives or remedies for obesity” (Takeda Pharmaceutical Company Limited, priority 2001, dated 2007).
Where a SMILES comes first, the peptide text is derived from it.

Target: T1, GPR7 (Homo sapiens, UniProt P48145)
T1 construct: expressed in transfected cells; host or cells: CHO dhfr- cells, plasmid pAKKO-Human GPR7 (high-expression clones 7, 8, 14)
T1 sequence (P48145 1-328): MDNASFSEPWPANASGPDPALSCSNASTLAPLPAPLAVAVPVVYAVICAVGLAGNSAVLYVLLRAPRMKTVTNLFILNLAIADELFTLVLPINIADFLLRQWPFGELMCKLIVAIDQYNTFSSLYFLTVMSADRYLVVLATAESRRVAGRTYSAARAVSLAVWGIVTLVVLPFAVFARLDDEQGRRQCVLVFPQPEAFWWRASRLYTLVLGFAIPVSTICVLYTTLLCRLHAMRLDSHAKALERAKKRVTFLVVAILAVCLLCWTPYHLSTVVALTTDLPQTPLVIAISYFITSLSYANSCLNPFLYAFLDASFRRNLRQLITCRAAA
Test: GTPγS-binding promoting activity on GPR7-expressed CHO cell membrane fraction
Assay type: biochemical
Method: The [^35S]-guanosine 5′-(γ-thio)triphosphate (GTPγS) binding promoting activity on the GPR7-expressed CHO cell membrane fraction was assayed by the following procedures.
The GPR7-expressed CHO cell membrane fraction prepared by the method described in EXAMPLE 2 was diluted with a membrane dilution buffer (50 mM Tris-hydrochloride buffer (pH 7.4), 5 mM MgCl2, 150 mM NaCl, 1 μM GDP and 0.1% BSA) to prepare a cell membrane fraction solution for assay having a protein level of 30 μg/ml. To 200 μl of the cell membrane fraction solution for assay were added 2 μl of 50 nM [^35S]-guanosine 5′-(γ-thio)triphosphate (NEN Co.) and 2 μl of a sample solution in DMSO, which was adjusted to an appropriate concentration. The resulting mixture was kept warm at 25° C. for an hour. The mixture was filtrated through a filter. After the filter was washed twice with 1.5 ml of a wash buffer (50 mM Tris-hydrochloride buffer (pH 7.4), 5 mM MgCl2, 1 mM EDTA and 0.1% BSA), radioactivity of the filter was measured with a liquid scintillation counter.
Following the procedures described in 1) above, hGPR8L (1-23) or hGPR8L (1-30) were given to the GPR7-expressed CHO cell membrane fraction in various concentrations to assay for the GTPγS-binding promoting activity. […]

| EC50 [nM] | SMILES |
| --- | --- |
| > 10000 | CSCC[C@H](NC(=O)[C@H](CC(C)C)NC(=O)[C@H](CC(C)C)NC(=O)CNC(=O)[C@H](C)NC(=O)[C@H](C)NC(=O)[C@H](CCCNC(=N)N)NC(=O)CNC(=O)[C@@H](NC(=O)[C@@H](NC(=O)[C@H](Cc1c[nH]cn1)NC(=O)[C@H](Cc1ccc(O)cc1)NC(=O)[C@H](CCCNC(=N)N)NC(=O)[C@@H]1CCCN1C(=O)[C@H](CO)NC(=O)[C@H](C)NC(=O)[C@@H](NC(=O)[C@@H](N)Cc1c[nH]cn1)C(C)C)[C@@H](C)O)C(C)C)C(=O)NCC(=O)N[C@@H](CC(C)C)C(=O)O [hGPR8L(4–23)] (H-HVASPRYHTVGRAAGLLMGL-OH; C-terminus assumed) |
| > 10000 | CSCC[C@H](NC(=O)[C@H](CC(C)C)NC(=O)[C@H](CC(C)C)NC(=O)CNC(=O)[C@H](C)NC(=O)[C@H](C)NC(=O)[C@H](CCCNC(=N)N)NC(=O)CNC(=O)[C@@H](NC(=O)[C@@H](NC(=O)[C@H](Cc1c[nH]cn1)NC(=O)[C@H](Cc1ccc(O)cc1)NC(=O)[C@@H](N)CCCNC(=N)N)[C@@H](C)O)C(C)C)C(=O)NCC(=O)N[C@@H](CC(C)C)C(=O)O [hGPR8L(9–23), Arg-Tyr-His-Thr-Val-Gly-Arg-Ala-Ala-Gly-Leu-Leu-Met-Gly-Leu] (H-RYHTVGRAAGLLMGL-OH; C-terminus assumed) |
